Measurements as given in ChEMBL document CHEMBL4138123, “Design, synthesis and biological evaluation of novel pyrazolochalcones as potential modulators of PI3K/Akt/mTOR pathway and inducers of apoptosis in breast cancer cells” (Eur J Med Chem, 2017).

Legend:
Type in all cases: functional
U-251 = assay: Cytotoxicity against human U251 cells assessed as cell growth at 10 uM after 48 hrs by sulforhodamine B assay relative to control; settings: U-251, 48 h, read-out: Activity
OVCAR-8 [1] = assay: Cytotoxicity against human OVCAR8 cells assessed as growth inhibition after 48 hrs by sulforhodamine B assay; settings: OVCAR-8, 48 h
SNB-19 = assay: Cytotoxicity against human SNB19 cells assessed as cell growth at 100 uM after 48 hrs by sulforhodamine B assay relative to control; settings: SNB-19, 48 h, read-out: Activity
HT-29 [2] = assay: Cytotoxicity against human HT-29 cells assessed as cell growth at 10 uM after 48 hrs by sulforhodamine B assay relative to control; settings: HT-29, 48 h, read-out: Activity
COLO 205 [3] = assay: Cytotoxicity against human COLO205 cells assessed as cell growth at 100 uM after 48 hrs by sulforhodamine B assay relative to control; settings: COLO 205, 48 h, read-out: Activity
HT-29 [4] = assay: Cytotoxicity against human HT-29 cells assessed as cell growth at 1 uM after 48 hrs by sulforhodamine B assay relative to control; settings: HT-29, 48 h, read-out: Activity
SR = assay: Cytotoxicity against human SR cells assessed as cell growth at 100 uM after 48 hrs by sulforhodamine B assay relative to control; settings: read-out: Activity
A498 = assay: Cytotoxicity against human A498 cells assessed as cell growth at 0.1 uM after 48 hrs by sulforhodamine B assay relative to control; settings: A498, 48 h, read-out: Activity
OVCAR-8 [5] = assay: Cytotoxicity against human OVCAR8 cells assessed as cell growth at 1 uM after 48 hrs by sulforhodamine B assay relative to control; settings: OVCAR-8, 48 h, read-out: Activity
RXF 393 [6] = assay: Cytotoxicity against human RXF393 cells assessed as cell growth at 0.1 uM after 48 hrs by sulforhodamine B assay relative to control; settings: RXF 393, 48 h, read-out: Activity
K562 = assay: Cytotoxicity against human K562 cells assessed as cell growth at 0.01 uM after 48 hrs by sulforhodamine B assay relative to control; settings: K562, 48 h, read-out: Activity
MDA-MB-231 = assay: Cytotoxicity against human MDA-MB-231 cells assessed as cell growth at 0.01 uM after 48 hrs by sulforhodamine B assay relative to control; settings: MDA-MB-231, 48 h, read-out: Activity
Malme-3M = assay: Cytotoxicity against human MALME-3M cells assessed as growth inhibition after 48 hrs by sulforhodamine B assay
UO-31 [7] = assay: Cytotoxicity against human UO31 cells assessed as cell growth at 1 uM after 48 hrs by sulforhodamine B assay relative to control; settings: UO-31, 48 h, read-out: Activity
SF-268 [8] = assay: Cytotoxicity against human SF268 cells assessed as cell growth at 0.1 uM after 48 hrs by sulforhodamine B assay relative to control; settings: SF-268, 48 h, read-out: Activity
SK-OV-3 = assay: Cytotoxicity against human SKOV3 cells assessed as cell growth at 100 uM after 48 hrs by sulforhodamine B assay relative to control; settings: SK-OV-3, 48 h, read-out: Activity
OVCAR-8 [9] = assay: Cytotoxicity against human OVCAR8 cells assessed as cell growth at 0.01 uM after 48 hrs by sulforhodamine B assay relative to control; settings: OVCAR-8, 48 h, read-out: Activity
786-0 = assay: Cytotoxicity against human 786-0 cells assessed as growth inhibition after 48 hrs by sulforhodamine B assay; settings: 786-0, 48 h
HT-29 [10] = assay: Cytotoxicity against human HT-29 cells assessed as cell growth at 0.1 uM after 48 hrs by sulforhodamine B assay relative to control; settings: HT-29, 48 h, read-out: Activity
OVCAR-3 = assay: Cytotoxicity against human OVCAR3 cells assessed as cell growth at 10 uM after 48 hrs by sulforhodamine B assay relative to control; settings: OVCAR-3, 48 h, read-out: Activity
MCF7 [11] = assay: Cytotoxicity against human MCF7 cells assessed as cell growth at 1 uM after 48 hrs by sulforhodamine B assay relative to control; settings: MCF7, 48 h, read-out: Activity
MCF7 [12] = assay: Cytotoxicity against human MCF7 cells assessed as cell growth at 0.1 uM after 48 hrs by sulforhodamine B assay relative to control; settings: MCF7, 48 h, read-out: Activity
HCT-116 [13] = assay: Cytotoxicity against human HCT116 cells assessed as cell growth at 1 uM after 48 hrs by sulforhodamine B assay relative to control; settings: HCT-116, 48 h, read-out: Activity
HCT-116 [14] = assay: Cytotoxicity against human HCT116 cells assessed as growth inhibition after 48 hrs by sulforhodamine B assay; settings: HCT-116, 48 h
COLO 205 [15] = assay: Cytotoxicity against human COLO205 cells assessed as cell growth at 1 uM after 48 hrs by sulforhodamine B assay relative to control; settings: COLO 205, 48 h, read-out: Activity
OVCAR-5 [16] = assay: Cytotoxicity against human OVCAR5 cells assessed as cell growth at 0.01 uM after 48 hrs by sulforhodamine B assay relative to control; settings: OVCAR-5, 48 h, read-out: Activity
SK-MEL-28 = assay: Cytotoxicity against human SK-MEL-28 cells assessed as cell growth at 0.1 uM after 48 hrs by sulforhodamine B assay relative to control; settings: SK-MEL-28, 48 h, read-out: Activity
RXF 393 [17] = assay: Cytotoxicity against human RXF393 cells assessed as cell growth at 100 uM after 48 hrs by sulforhodamine B assay relative to control; settings: RXF 393, 48 h, read-out: Activity
SF-268 [18] = assay: Cytotoxicity against human SF268 cells assessed as cell growth at 0.01 uM after 48 hrs by sulforhodamine B assay relative to control; settings: SF-268, 48 h, read-out: Activity
UO-31 [19] = assay: Cytotoxicity against human UO31 cells assessed as cell growth at 0.01 uM after 48 hrs by sulforhodamine B assay relative to control; settings: UO-31, 48 h, read-out: Activity
OVCAR-5 [20] = assay: Cytotoxicity against human OVCAR5 cells assessed as growth inhibition after 48 hrs by sulforhodamine B assay; settings: OVCAR-5, 48 h
OVCAR-4 = assay: Cytotoxicity against human OVCAR4 cells assessed as growth inhibition after 48 hrs by sulforhodamine B assay; settings: OVCAR-4, 48 h
NCI-H322M = assay: Cytotoxicity against human NCI-H322M cells assessed as growth inhibition after 48 hrs by sulforhodamine B assay; settings: for CC50: read-out: LC50 (the source's name)
SF-539 = assay: Cytotoxicity against human SF539 cells assessed as cell growth at 100 uM after 48 hrs by sulforhodamine B assay relative to control; settings: SF-539, 48 h, read-out: Activity
UACC-257 = assay: Cytotoxicity against human UACC257 cells assessed as cell growth at 100 uM after 48 hrs by sulforhodamine B assay relative to control; settings: UACC-257, 48 h, read-out: Activity
SW-620 = assay: Cytotoxicity against human SW620 cells assessed as cell growth at 0.01 uM after 48 hrs by sulforhodamine B assay relative to control; settings: SW-620, 48 h, read-out: Activity

`COc1ccc(-c2cc(/C=C/C(=O)c3ccc(OC)c(OC)c3)[nH]n2)cc1` showed a growth at 10 µM (U-251) of -97%, a GI50 (OVCAR-8 [1]) of 2.16 µM and an LC50 (OVCAR-8 [1]) of 57.6 µM. For the same compound, the TGI (OVCAR-8 [1]) was 10.4 µM, the growth at 100 µM (SNB-19) was -96% and the growth at 10 µM (HT-29 [2]) was -66%. It also gave a growth at 100 µM (COLO 205 [3]) of -77%, a growth at 1 µM (HT-29 [4]) of 77% and a growth at 100 µM (SR) of -41%. The growth at 0.1 µM (A498) was 79%, the growth at 1 µM (OVCAR-8 [5]) was 75% and the growth at 0.1 µM (RXF 393 [6]) was 93%. The growth at 0.01 µM (K562) was 109%, the growth at 0.01 µM (MDA-MB-231) was 98% and the GI50 (Malme-3M) was 1.62 µM. The LC50 (Malme-3M) was 7.38 µM, the TGI (Malme-3M) was 3.45 µM and the growth at 1 µM (UO-31 [7]) was 61%. For the same compound, the growth at 0.1 µM (SF-268 [8]) was 99%, the growth at 100 µM (SK-OV-3) was -95% and the growth at 0.01 µM (OVCAR-8 [9]) was 93%. It also gave a GI50 (786-0) of 1.6 µM, an LC50 (786-0) of 5.96 µM and a TGI (786-0) of 3.09 µM. It also gave a growth at 0.1 µM (HT-29 [10]) of 101%, a growth at 10 µM (OVCAR-3) of -95% and a growth at 1 µM (MCF7 [11]) of 27%. It also gave a growth at 0.1 µM (MCF7 [12]) of 88%, a growth at 1 µM (HCT-116 [13]) of 51% and a GI50 (HCT-116 [14]) of 1.01 µM. For the same compound, the LC50 (HCT-116 [14]) was 6.08 µM, the TGI (HCT-116 [14]) was 2.48 µM and the growth at 1 µM (COLO 205 [15]) was 95%. The growth at 0.01 µM (OVCAR-5 [16]) was 93%, the growth at 0.1 µM (SK-MEL-28) was 98% and the growth at 100 µM (RXF 393 [17]) was -92%. The growth at 0.01 µM (SF-268 [18]) was 101%, the growth at 0.01 µM (UO-31 [19]) was 86% and the GI50 (OVCAR-5 [20]) was 1.65 µM. It also gave an LC50 (OVCAR-5 [20]) of 10.6 µM, a TGI (OVCAR-5 [20]) of 4.09 µM and a GI50 (OVCAR-4) of 0.59 µM. The LC50 (OVCAR-4) was 28.4 µM, the TGI (OVCAR-4) was 3.87 µM and the GI50 (NCI-H322M) was 1.62 µM. It also gave a TGI (NCI-H322M) of 4.92 µM, a CC50 (NCI-H322M) of 18.7 µM and a growth at 100 µM (SF-539) of -99%. It also gave a growth at 100 µM (UACC-257) of -100% and a growth at 0.01 µM (SW-620) of 99%.
For `COc1ccc(-c2cc(/C=C/C(=O)c3cc(OC)c(OC)c(OC)c3)[nH]n2)cc1OC`, the growth at 10 µM (U-251) was -97%, the GI50 (OVCAR-8 [1]) was 2.55 µM and the LC50 (OVCAR-8 [1]) was 42.1 µM. The TGI (OVCAR-8 [1]) was 11.7 µM, the growth at 100 µM (SNB-19) was -77% and the growth at 10 µM (HT-29 [2]) was -87%. It also gave a growth at 100 µM (COLO 205 [3]) of -88%, a growth at 1 µM (HT-29 [4]) of 68% and a growth at 100 µM (SR) of -14%. For the same compound, the growth at 0.1 µM (A498) was 89%, the growth at 1 µM (OVCAR-8 [5]) was 80% and the growth at 0.1 µM (RXF 393 [6]) was 102%. It also gave a growth at 0.01 µM (K562) of 100%, a growth at 0.01 µM (MDA-MB-231) of 98% and a GI50 (Malme-3M) of 2.32 µM. For the same compound, the LC50 (Malme-3M) was 47.5 µM, the TGI (Malme-3M) was 6.19 µM and the growth at 1 µM (UO-31 [7]) was 67%. For the same compound, the growth at 0.1 µM (SF-268 [8]) was 93%, the growth at 100 µM (SK-OV-3) was -95% and the growth at 0.01 µM (OVCAR-8 [9]) was 100%. For the same compound, the GI50 (786-0) was 1.5 µM, the LC50 (786-0) was 5.6 µM and the TGI (786-0) was 2.9 µM. It also gave a growth at 0.1 µM (HT-29 [10]) of 99%, a growth at 10 µM (OVCAR-3) of -85% and a growth at 1 µM (MCF7 [11]) of 53%. The growth at 0.1 µM (MCF7 [12]) was 86%, the growth at 1 µM (HCT-116 [13]) was 27% and the GI50 (HCT-116 [14]) was 0.42 µM. For the same compound, the LC50 (HCT-116 [14]) was 5.18 µM, the TGI (HCT-116 [14]) was 1.79 µM and the growth at 1 µM (COLO 205 [15]) was 89%. The growth at 0.01 µM (OVCAR-5 [16]) was 102%, the growth at 0.1 µM (SK-MEL-28) was 91% and the growth at 100 µM (RXF 393 [17]) was -83%. The growth at 0.01 µM (SF-268 [18]) was 99%, the growth at 0.01 µM (UO-31 [19]) was 88% and the GI50 (OVCAR-5 [20]) was 1.76 µM. The LC50 (OVCAR-5 [20]) was 13.7 µM, the TGI (OVCAR-5 [20]) was 4.31 µM and the GI50 (OVCAR-4) was 1.62 µM. For the same compound, the TGI (OVCAR-4) was 7.17 µM, the GI50 (NCI-H322M) was 2.02 µM and the TGI (NCI-H322M) was 6.03 µM. It also gave a CC50 (NCI-H322M) of 25 µM, a growth at 100 µM (SF-539) of -87% and a growth at 100 µM (UACC-257) of -94%. The growth at 0.01 µM (SW-620) was 98%.
